Reference: ChEMBL document CHEMBL5385846, “Discovery and development of palmatine analogues as anti-NASH agents by activating farnesoid X receptor (FXR)” (Eur J Med Chem, 2023)
Active and inactive are the calls of the source. No cut-off for these calls is given here.

What was measured:
[1] = tested on: LX-2; test: Antifibrotic activity in TGF-beta1 induced human LX2 cells assessed as downregulation of TGF-beta1 protein expression incubated for 24 hrs by western blotting analysis; format: functional, cell-based
[2] = tested on: Mus musculus; test: Antifibrotic activity in CDAHFD induced non-alcoholic steatohepatitis C57BL/6N mouse model assessed as downregulation of MMP2 protein expression at 200 mg/kg,po qd administration for 4 weeks by Western blotting analysis; format: functional, organism-based
[3] = Acute toxicity in Kunming mouse assessed as effect on […] level at 250 to 1000 mg/kg,po administration; format: organism-based; conditions: in vivo, dose 250-1000 mg/kg
[4] = tested on: LX-2; test: Antifibrotic activity in TGF-beta1 induced human LX2 cells assessed as downregulation of TGF-beta1 mRNA expression incubated for 24 hrs by qRT-PCR analysis; format: functional, cell-based
[5] = tested on: Mus musculus; test: Antifibrotic activity in CDAHFD induced non-alcoholic steatohepatitis C57BL/6N mouse model assessed as downregulation of TGF-beta1 mRNA expression at 200 mg/kg,po qd administration for 4 weeks by qRT-PCR analysis; format: functional, organism-based

With COc1cc2c(cc1OC)-c1cc3ccc(OC)c(OCc4cccc(C)c4)c3c[n+]1CC2.[Br-] the Activity [1] was “Dose-Dependent Effect”, the Activity [2] was “Active” and the Activity [3] was “Non-Toxic”. The Activity [4] was “Dose-Dependent Effect” and the Activity [5] was “Active”.
